Assay results as given in patent US20040121474A1, “Detection and evaluation of chemically-mediated and ligand-mediated t-cell activation using optophoretic analysis” (Genoptix, Inc, priority 2002, published 2004).
Counter-ions that a name gives are not always drawn. Like-named read-outs stand apart in the source and are kept apart here.

Assays:
U937 cells [1] = experiment: Escape velocity, PMA inhibition by bisindolymaleimide; assay type: cell-based; settings: for Escape velocity Ave.: four hours
Description: The objective of this experiment was to test the effect of bisindolymaleimide on cells exposed to PMA. Bisindolymaleimide is a Protein Kinase C inhibitor and should block the effect of PMA on U937 cells and their escape velocities. As shown in this and prior experiments, exposure of U937 cells to PMA results in an increase in the escape velocity of the cells. Therefore, it is anticipated that addition of bisindolymaleimide will reduce or eliminate the increase in escape velocity caused by PMA. This has in fact been observed in the data shown below.
Bisindolymaleimide was tested at two concentrations: 200 ng/ml and 50 ng/ml. Samples not treated with bisindolymaleimide received an equivalent amount of the carrier, MeOH, as a control. […] The concentration of PMA tested was 10 ng/ml. Samples not receiving PMA received DMSO.
Once the flasks were prepared, they were incubated at 37° C. 5% CO2 for four hours. At the four hour timepoint, 300 μl of cells were removed from each flask and pelleted at 5000 rpm for 5 minutes. The cells were then resuspended in 6 ml PBS/1% BSA and 60 μl trypan blue.

[2] = test system: CD11b expression in HL-60 cells; experiment: FACS CD11b expression profile; assay type: cell-based; settings: 1% DMSO
Protocol: (§1) Fast scan analysis was also performed on HL-60 cells that were treated with PMA and DMSO. A time course evaluation of PMA treated HL-60 cells was performed with fast scan data taken at 16 hours, 24 hours, 40 hours, and 72 hours post-treatment with 400 ng/ml PMA. A control sample of HL-60 cells was also tested using EtOH as the vehicle for purposes of comparing the differentiated cells with the undifferentiated HL-60 cells. The PMA-treated and control cells were harvested and trypsinized. The samples were then resuspended in PBS/1% BSA. A set of samples was also obtained and left as pellets at 4° C. for subsequent FACS analysis.
FIG. 145 illustrates a histogram of the travel distance of the control cells as well as the PMA-treated cells at 16 hours, 24 hours, 40 hours, and 72 hours post-treatment. FIG. 146 illustrates the mean travel distances of the control cells as well as the PMA-treated cells at 16 hours, 24 hours, 40 hours, and 72 hours post-treatment. FIG. 147 illustrates the FACS CD11b expression profile in PMA-treated HL-60 cells as well as the control. CD11b is a known marker of cellular differentiation and is expressed on the surface of differentiating cells. […] The data illustrate that Optophoretic analysis can be used as an assay for the detection and quantification of cellular differentiation. […]

HL-60 cells = experiment: Fast scan analysis, differentiation of HL-60 cells; assay type: cell-based; settings: 1% DMSO
Protocol: as §1
A time course evaluation of DMSO treated HL-60 cells was performed with fast scan data taken at 16 hours, 24 hours, 40 hours, and 70 hours post-treatment with 1% DMSO. A control sample of HL-60 cells was also tested for purposes of comparing the differentiated cells with the undifferentiated HL-60 cells. The DMSO-treated and control cells were then harvested and resuspended in PBS/1% BSA. A set of samples was also obtained and left as pellets at 4° C. for subsequent FACS analysis.

[3] = test system: Erythromycin-resistant strain; experiment: Bacterial screen for drug sensitivity, escape velocity; assay type: cell-based, Staphylococcus aureus; settings: 5 μg/ml Erythromycin
Protocol: (§2) In this experiment, escape velocity was measured over time in wild type Staphylococcus aureus and an Erythromycin-resistant strain. 5 μg/ml of Erythromycin was applied to both the wild type Staphylococcus aureus and an Erythromycin-resistant strain. Escape velocity measurements were taken at time zero, 30 minutes post-treatment, and 3 hours post-treatment. […] In this experiment, however, escape velocity measurements were made at time zero, 30 minutes post-treatment, and 1 hour post-treatment, and 2 hours post-treatment. A reduction in escape velocity of the Erythromycin-sensitive strain can be seen at 1 hour post-treatment.

[4] = test system: wild type Staphylococcus aureus; experiment: as above; assay type: cell-based; settings: 5 μg/ml Erythromycin
Protocol: as §2

[5] = test system: K-562, BV-173, EM-3, and U-937 cell lines; experiment: Fast scan analysis, effect of Gleevec; assay type: cell-based; settings: 1 μM Gleevec, 48 hours, U-937 cells excepted
Description: (§3) FIGS. 30A and 30B show optical interrogation of a group of cells 610 using a fast scan analysis. In this method, a moving optical gradient 612 (laser beam) in the form of a line is moved relative to the cells 610. […] Instead, an image can be taken of the cells 610 prior to the scan to determine the starting position of each cell 610. […] The distances traveled can be obtained by images taken of the cells 610 before and after the scanning process. The optical gradient 612 is moved at a speed that is higher than the escape velocity of all the cells 610 within the group. In this manner, all of the cells 610 are left behind the moving optical gradient 612. In an alternate fast scan embodiment, the cells 610 are initially lined up at a starting position A. After aligning the cells 610, the optical gradient 612 is rapidly moved and their distance of travel is measured by optical imaging. It should be understood that fast scan analysis may include multiple scans or “sweeps” of the cells 610. Generally, it has been observed that multiple scans produce larger cell movements.

[6] = test system: K562, BV-173, EM-3, and U-937 cells; experiment: Escape velocity, effect of Gleevec; assay type: cell-based; settings: 72 hours after exposure, all four cell types
Description: The U-937 cells have no copies of the gene. The K-562 line of cells has, on average, one copy of the gene per cell. The BV-173 line of cells has, on average, three copies of the gene per cell. The EM-3 cell line has, on average, five copies of the gene per cell. […] FIG. 44 illustrates the measured escape velocities (average) for each of the four cell types. […] In addition, the decrease in escape velocity for the Gleevec-treated cells was more pronounced in those cell lines that had higher copy numbers of the Bcr-Abl gene.

Jurkat cells = experiment: Escape velocity, TNF-α effect on Jurkat cells; assay type: cell-based; settings: TNF inhibitor added with TNF
Protocol: After 48 hours of incubation, the cells were removed and centrifuged for 5 minutes at 5,000 rpm. Then the cells were resuspended in PBS/1% BSA and trypan blue. A higher power setting, 140 mW instead of 100 mW, was used for this experiment. The escape velocities were measured as follows:
In this experiment Leflunomide and Silymarin were added with TNF to see if the anticipated increase in escape velocity measurements could be counteracted by the presence of the TNF inhibitors.

U937 cells [7] = test system: U937 cells
Protocol: This experiment is designed to compare the effects of two concentrations of sodium salicylate on U937 cells. Sodium salicylate was prepared at two concentrations: 20 mM and 5 mM. The escape velocities of the cells was tested at 5 hours, 24 hours and 47 hours. At each timepoint, 30 μl of sample was pelleted at 5,000 rpm for 5 minutes and then resuspended in PBS/1% BSA and trypan blue.

Chang liver cells [8] = experiment: Escape velocity, toxicity of ketoconazole to liver cells; assay type: cell-based, human; settings: 1 μm of ketoconazole, 1.5 hours of treatment
Protocol: This experiment is designed to test the effect of ketoconazole on human liver cells. Ketoconazole induces toxicity in liver cells. The sample cells were Chang liver cells. The concentration of ketoconazole used to treat the cells was 1 μm. Escape velocity and fast scan protocols were applied to determine the impact, if any, of ketoconazole treatment. […] Consequently, Optophoresis was able to detect an effect on the escape velocity of treated cells within 1.5 hours of exposure to ketoconazole. FIGS. 44-45 show the fast scan results of ketoconazole-treated Chang liver cells. […] The ketoconazole-treated cells generally traveled a smaller distance as compared to the non-treated control.

Chang liver cells [9] = assay type: cell-based; settings: human, 1 μm
Description: as §3
This experiment is designed to test the effect of ketoconazole on human liver cells. Ketoconazole induces toxicity in liver cells. The sample cells were Chang liver cells. The concentration of ketoconazole used to treat the cells was 1 μm. […]

CEM/C2 = CEM/C2 cell line obtained from ATCC; cited from earlier work
U937 cells [10] = experiment: Escape velocity, characterization of topoisomerase inhibitors
CCRF-CEM = experiment: Escape velocity, topotecan on sensitive cell line; assay type: cell-based; settings: 10 μM topotecan, 6 hours
Protocol: In a fifth experiment, two different cell lines obtained from ATCC which have varying degrees of sensitivity to topoisomerase I inhibitors such as camptothecin and topotecan were subject to Optophoretic analysis. A group of cells from a parental cell line CCRF-CEM that is sensitive to camptothecin and topotecan were incubated for 6 hours with 10 μM topotecan. Another group of cells from the cell line CEM/C2, which are 970-fold less sensitive to camptothecin and topotecan, were also incubated for 6 hours with 10 μM topotecan. Control cells from both the CCRF-CEM and CEM/C2 cell lines were also tested. […] Escape velocity measurements were then taken using a 100 mW laser with a diameter of 28 pixels. […] Optophoretic analysis was thus able to score cross-resistance of camptothecin-resistant cell lines to topotecan, an analog of camptothecin.

SMILES: CN(C)CCCn1cc(C2=C(c3c[nH]c4ccccc34)C(=O)NC2=O)c2ccccc21 [Bisindolymalemide, Bisindolymaleimide]
- Escape velocity Ave. (U937 cells [1]; 50 ng/ml bisindolymaleimide + 10 ng/ml PMA): 15.1 μm/sec
- Escape velocity Ave. (U937 cells [1]; 50 ng/ml bisindolymaleimide, no PMA): 13.9 μm/sec
- effect on PMA-caused shift in escape velocity (FIG. 33) (U937 cells [1]; 200 ng/ml BIMI for 30 minutes, then 10 ng/ml PMA): blocked the optophoretic shift in escape velocity
- Escape velocity Ave. (U937 cells [1]; 200 ng/ml bisindolymaleimide + 10 ng/ml PMA): 14.5 μm/sec
- Escape velocity Ave. (U937 cells [1]; 200 ng/ml bisindolymaleimide, no PMA): 14.0 μm/sec

SMILES: C[S+](C)[O-] [DMSO, dimethylsulfoxide]
- time after treatment at which a change in CD11b expression levels was detected [2]: 40 h
- time after treatment at which a noticeable decrease of the mean travel distance was detected (HL-60 cells): ≤ 16 h

SMILES: CC[C@H]1OC(=O)[C@H](C)[C@@H](O[C@H]2C[C@@](C)(OC)[C@@H](O)[C@H](C)O2)[C@H](C)[C@@H](O[C@@H]2O[C@H](C)C[C@H](N(C)C)[C@H]2O)[C@](C)(O)C[C@@H](C)C(=O)[C@H](C)[C@@H](O)[C@]1(C)O [Erythromycin]
- escape velocity (FIG. 80) [3]: same escape velocity as the untreated Erythromycin-sensitive strain
- time post-treatment at which a reduction in escape velocity can be seen (FIG. 81) [4]: 1 h
- change of escape velocity over time (FIG. 80) ([4]; time zero, 30 minutes, 3 hours): decreases

SMILES: Cc1ccc(NC(=O)c2ccc(CN3CCN(C)CC3)cc2)cc1Nc1nccc(-c2cccnc2)n1 [Gleevec, imatinib mesylate]
- mean travel distances as compared to non-treated controls (FIG. 41) [5]: lower mean travel distances
- escape velocity as compared to non-treated cells (FIG. 40) [6]: significantly lower escape velocity

SMILES: Cc1oncc1C(=O)Nc1ccc(C(F)(F)F)cc1 [Leflunomide]
- effect on TNF-caused increase in escape velocity (FIG. 36) (Jurkat cells): mitigate the increase in escape velocity caused by TNF

SMILES: O=C([O-])c1ccccc1O.[Na+] [Sodium Salicylate, Sodium salicylate]
- shift in escape velocities (FIG. 37) (U937 cells [7]; 5 mM and 20 mM, 5 and 24 hours): slight but statistically significant shift in escape velocities
- Escape velocity Ave. (U937 cells [7]; 5 mM, 5 hours): 14.1
- Escape velocity Ave. (U937 cells [7]; 5 mM, 24 hours): 15.2
- Escape velocity Ave. (U937 cells [7]; 5 mM, 47 hours): 13.7
- Escape velocity Ave. (U937 cells [7]; 20 mM, 5 hours): 13.3
- Escape velocity Ave. (U937 cells [7]; 20 mM, 24 hours): 16.0
- cell viability (trypan blue) (U937 cells [7]; 20 mM, 47 hours): all cells were dead

SMILES: CC(=O)N1CCN(c2ccc(OCC3COC(Cn4ccnc4)(c4ccc(Cl)cc4Cl)O3)cc2)CC1 (stereo not shown) [ketoconazole]
- escape velocity vs control (FIG. 46) (Chang liver cells [8]): marked decrease in escape velocity
- mean travel distance (Chang liver cells [9]): 20.97 μm

SMILES: CC[C@@]1(O)C(=O)OCc2c1cc1n(c2=O)Cc2cc3c(CN(C)C)c(O)ccc3nc2-1 [topotecan]
- less sensitive than parental cell line CCRF-CEM (CEM/C2): 970 fold
- shift in escape velocity as compared to the camptothecin-treated cells (FIG. 54) (U937 cells [10]; 4 μg/ml, four hours): larger shift in escape velocity
- cellular debris (U937 cells [10]; 10 μM and 20 μM topotecan, six hours): a significant amount of cellular debris was present
- cell death (U937 cells [10]; 10 μM topotecan, 24 hour): virtually all of the treated U937 cells were dead
- dead or necrotic cells (U937 cells [10]; 2.5, 5 and 10 μM topotecan, 4 hour): not a significant number of dead or necrotic cells
- decrease in escape velocity as compared to the CEM/C2 cells (FIG. 67) (CCRF-CEM): larger decrease in escape velocity
